Test [1] deals with 6 ATCC (4MSSA, 2 MRSA)plus45 MRSA all LZD sensitive. As to the kind of experiment: MIC on strain panel (Table 4). Type of test: cell-based, Staphylococcus aureus. The following applies: 6 ATCC plus 45 MRSA. The source says:
(§1) The in vitro antibacterial activity of the new agents was studied by determining their minimum inhibitory concentrations (MICs) by means of the broth microdilution method according to the Clinical and Laboratory Standards Institute (CLSI) guidelines.[16] Briefly, serial 2-fold dilutions of each compound were made using the Cation adjusted Mueller-Hinton broth (CAMHB) in microtitre plates with 96 wells. Dimethyl sulfoxide (DMSO) was used as solvent for all the synthesized compounds. An equal volume of the bacterial inoculum (1×10^6 CFU/mL) was added to each well on the microtitre plate containing 0.05 mL of the serial antibiotic dilutions. The microtitre plate was then incubated at 37° C. for 18-24 h after which each well was analysed for the presence of bacterial growth. The MIC was defined as the lowest concentration of antimicrobial agent able to cause inhibition of bacterial growth as shown by the lack of turbidity of the culture medium. […] Final DMSO concentrations were also taken into account in all the biological assays.

For test [2], the system named is 12 MRSE all LZD sensitive. Briefly: MIC on strain panel (Table 4). Type of test: cell-based, Staphylococcus epidermidis.
Text: as §1

Test [3] relates to Staphylococcus aureus ATCC 29213. Briefly: MIC by broth microdilution (CLSI). Type of test: cell-based. The following applies: ATCC 29213.
Text: (§2) Several well characterized for their antibiotic-susceptibility phenotype Staphylococcus aureus isolates were used for the determination of the in vitro antibacterial activity of the studied compounds. In particular, S. aureus ATCC 29213 reference standard strain and S. aureus M923 (collection strain) were used as MSSA strains. Among MRSA, S. aureus MU50 (ATCC 700699) reference standard strain and two collection strains (433 and F511) were used for susceptibility assays.
as §1
(§3) The antimicrobial activities, summarized in Table 2, were determined by the “gold standard” method of broth microdilution, as recommended by the Clinical Laboratory Standards Institute (CLSI) (See the Experimental Section). […] In detail, the bacterial strains were tested: Staphylococcus aureus ATCC 29213, a clinical strain of methicillin-susceptible S. aureus (M923), S. aureus MU50 (methicillin-resistant—MRSA), and two methicillin-resistant clinical strains, 433 and F511.
(§4) The antimicrobial activities, summarized in Table 3, were determined by the “gold standard” method of broth microdilution, as recommended by the Clinical Laboratory Standards Institute (CLSI) (See the Experimental Section). The minimum inhibitory concentration (MIC) values were expressed in μg/mL. […] In detail, the tested bacterial strains were: Staphylococcus aureus ATCC 29213, a clinical strain of methicillin-susceptible S. aureus (M923), S. aureus MU50 (methicillin-resistant—MRSA) strain, and two methicillin-resistant clinical strains, 433 and F511.
Background: Broth dilution looks for growth in wells or tubes with falling amounts of substance.

Test [4] deals with S. aureus MU50 (ATCC 700699), methicillin-resistant (MRSA). Briefly: MIC by broth microdilution (CLSI). Type of test: cell-based, Staphylococcus aureus.
Text: as §2, §1, §3, §4

Test [5] relates to MRSA clinical strain 433. Briefly: MIC by broth microdilution (CLSI). Conditions: MRSA 433. The format is cell-based, Staphylococcus aureus.
Text: as §2, §1, §3, §4

Test [6] relates to methicillin-susceptible S. aureus (M923). As to the kind of experiment: MIC by broth microdilution (CLSI). The format is cell-based, Staphylococcus aureus. The following applies: MSSA M923.
Text: as §2, §1, §3, §4

Test [7] concerns MRSA clinical strain F511. As to the kind of experiment: MIC by broth microdilution (CLSI). Type of test: cell-based, Staphylococcus aureus.
Text: as §2, §1, §3, §4

Where [8] appears, read: Staphylococcus aureus, ATCC29213, racemic form, Table 3, read-out: MIC.
Where [9] appears, read: Staphylococcus aureus, racemic form, Table 3, read-out: MIC.
The mark [10] stands for this setting: Staphylococcus aureus, ATCC29213, racemic mixture, Table 2, read-out: MIC.
The mark [11] stands for this setting: Staphylococcus aureus, racemic mixture, Table 2, read-out: MIC.

≈ marks a conversion by molar mass, not a printed value. Like-named read-outs stand apart in the source and are kept apart here.

A word on the MIC50: it is the lowest concentration that inhibits either 50% of growth or 50% of the strains tested, depending on the study. A word on the MIC90: it is the lowest concentration that inhibits either 90% of growth or 90% of the strains tested, depending on the study. As to `CNC(=S)NC[C@@H]1CN(c2ccc(-c3nc(C)no3)c(F)c2)C(=O)O1` [Compound B4bR], in test [1], the MIC50 is more than 128 µg/mL and the MIC90 is more than 128 µg/mL. In test [2], this molecule displayed an MIC50 of more than 128 µg/mL and an MIC90 of more than 128 µg/mL.

Regarding `CNC(=S)NC[C@H]1CN(c2ccc(-c3nc(C)no3)c(F)c2)C(=O)O1` [Compound B4bS], in test [1], the MIC50 was found to be 2 µg/mL and the MIC90 was found to be 4 µg/mL. For the same molecule, the MIC-range in test [1] (tested range ≤0.06 - >128) was 0.5 to 8 µg/mL. In test [2], this molecule yielded an MIC50 of 8 µg/mL (≈ 21.9 µM) and an MIC90 of 8 µg/mL (≈ 21.9 µM).

The term MIC denotes the smallest concentration in the dilution series that meets the test's criterion for growth inhibition. For `Cc1noc(-c2ccc(N3CC(CN=C=S)OC3=O)cc2)n1` (racemic) [Compound B2a], the MIC in test [3] (setting [8]) was more than 50 µg/mL; in test [4] (setting [9]), more than 50 µg/mL; in test [5] (setting [9]), more than 50 µg/mL; in test [6] (setting [9]), more than 50 µg/mL; in test [7] (setting [9]), 50 µg/mL (≈ 158 µM).

For the molecule `Cc1noc(-c2ccc(N3CC(Cn4cccn4)OC3=O)cc2F)n1` (racemic) [Compound A5b], the MIC in test [3] (setting [10]), in test [4] (setting [11]), in test [5] (setting [11]), in test [6] (setting [11]) and in test [7] (setting [11]) was more than 50 µg/mL in each case.

With `Cc1noc(-c2ccc(N3CC(CNC(N)=S)OC3=O)cc2F)n1` (racemic) [Compound B3b], the minimum inhibitory concentration (MIC) in test [3] (racemic form, Table 3) is more than 50 µg/mL; in test [4] (racemic form, Table 3), more than 50 µg/mL; in test [5] (racemic form, Table 3), more than 50 µg/mL; in test [6] (racemic form, Table 3) it was more than 50 µg/mL; in test [7] (racemic form, Table 3), more than 50 µg/mL.

As for `Cc1noc(-c2ccc(N3CC(CN=C=S)OC3=O)cc2F)n1` (racemic) [Compound B2b], the MIC in test [3] (setting [8]), in test [4] (setting [9]), in test [5] (setting [9]), in test [6] (setting [9]) and in test [7] (setting [9]) was more than 50 µg/mL in each case.

In the case of `Cc1noc(-c2ccc(N3CC(Cn4cccn4)OC3=O)cc2)n1` (racemic) [Compound A5a], the MIC in test [3] (setting [10]), in test [4] (setting [11]), in test [5] (setting [11]), in test [6] (setting [11]) and in test [7] (setting [11]) was more than 50 µg/mL each time.

With `Cc1noc(-c2ccc(N3CC(Cn4ccnc4)OC3=O)cc2)n1` (racemic) [Compound A6a], the MIC in test [3] (setting [10]), in test [4] (setting [11]), in test [5] (setting [11]), in test [6] (setting [11]) and in test [7] (setting [11]) was more than 50 µg/mL each time.

For `CC(=S)NCC1CN(c2ccc(-c3nc(C)no3)cc2)C(=O)O1` (racemic) [Compound A4a, 3-(4′-(3″-methyl-1,2,4-oxadiazol-5-yl)-phenyl)-5-(N-thioacetylaminomethyl)-oxazolidin-2-one], the minimum inhibitory concentration (MIC) in test [3] (setting [10]) was 3.13 µg/mL (≈ 9.42 µM); in test [4] (setting [11]) it was not above 0.4 µg/mL; in test [5] (setting [11]) it was 1.6 µg/mL (≈ 4.81 µM); in test [6] (setting [11]), 1.6 µg/mL (≈ 4.81 µM); in test [7] (setting [11]) it was 1.6 µg/mL (≈ 4.81 µM).

On to `Cc1noc(-c2ccc(N3CC(CNC(N)=S)OC3=O)cc2)n1` (racemic) [Compound B3a], for which the MIC in test [3] (racemic form, Table 3) is more than 50 µg/mL; in test [4] (racemic form, Table 3), more than 50 µg/mL; in test [5] (racemic form, Table 3), more than 50 µg/mL; in test [6] (racemic form, Table 3), more than 50 µg/mL; in test [7] (racemic form, Table 3), more than 50 µg/mL.

Turning to `Cc1noc(-c2ccc(N3CC(Cn4cncn4)OC3=O)cc2)n1` (racemic) [Compound A7a], the MIC in test [3] (setting [10]), in test [4] (setting [11]), in test [5] (setting [11]), in test [6] (setting [11]) and in test [7] (setting [11]) was more than 50 µg/mL each time.

For the molecule `Cc1noc(-c2ccc(N3CC(Cn4ccnc4)OC3=O)cc2F)n1` (racemic) [Compound A6b], the MIC in test [3] (setting [10]), in test [4] (setting [11]), in test [5] (setting [11]), in test [6] (setting [11]) and in test [7] (setting [11]) was more than 50 µg/mL in each case.

Consider `Cc1noc(-c2ccc(N3CC(Cn4cncn4)OC3=O)cc2F)n1` (racemic) [Compound A7b], for which the MIC in test [3] (setting [10]), in test [4] (setting [11]), in test [5] (setting [11]), in test [6] (setting [11]) and in test [7] (setting [11]) was more than 50 µg/mL throughout.

(Values after patent publication US9920039B2, “1,2,4-Oxadiazol compounds active against gram-positive pathogens” (UNIVERSITÀ DEGLI STUDI DI MILANO—BICOCCA, priority 2013, dated 2018).)
